According to patent US20260176320A1, “MODULATORS OF G-PROTEIN COUPLED RECEPTORS” (priority 2018, published 2026):
pEC50: −log10 of the molar value. Read-outs that look alike come from different tables or passages of the source.

Columns and labels:
Type in all cases: cell-based
[1] = target: T1, GLP-1R (Homo sapiens, UniProt P43220); test: PathHunter β-arrestin assay
Method in brief: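 Cells seeded overnight, then medium replaced with medium containing 0.2% BSA; agonists added as 22-point 2-fold DMSO dilution series in duplicate and incubated 90 min at 37 °C, 5% CO2. After addition of detection solution, plates sat 3 h at room temperature in the dark; luminescence read.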

[2] = target: T2, GIP-R (Homo sapiens, UniProt P48546); test: HitHunter cAMP assay (GIP-R); details: cAMP; for Emax at 1 µM: read-out: (Emax) GIP-R at 1 μM, Table 3; for Emax: read-out: (Emax) GIP-R
T2 sequence (P48546 22-466): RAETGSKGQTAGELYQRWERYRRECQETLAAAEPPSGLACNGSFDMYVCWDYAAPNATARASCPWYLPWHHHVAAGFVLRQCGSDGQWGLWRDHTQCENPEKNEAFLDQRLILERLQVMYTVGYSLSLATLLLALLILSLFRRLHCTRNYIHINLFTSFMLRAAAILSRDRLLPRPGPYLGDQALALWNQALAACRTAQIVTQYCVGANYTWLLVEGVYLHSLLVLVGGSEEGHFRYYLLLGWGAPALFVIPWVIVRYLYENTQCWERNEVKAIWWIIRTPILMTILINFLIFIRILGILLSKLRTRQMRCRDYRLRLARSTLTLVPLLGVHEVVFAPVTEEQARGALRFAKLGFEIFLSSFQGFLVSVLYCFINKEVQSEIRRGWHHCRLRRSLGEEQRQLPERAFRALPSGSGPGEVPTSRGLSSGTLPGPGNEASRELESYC
Method in brief: (§1)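 Suspension cells expressing each receptor (10,000 per well) in HBSS with 10 mM HEPES, 625 μM IBMX and 0.2% BSA were treated with a 22-point 2-fold agonist series in duplicate for 30 minutes at room temperature. cAMP was detected by antibody immunocompetition with luminescence read after overnight incubation.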

[3] = target: T1, GLP-1R; test: HitHunter cAMP assay (GLP-1R); details: cAMP; for Emax: read-out: (Emax) GLP-1R
Method in brief: as §1

[4] = read-out: EC50 GIP-R/nM, Table 3A
[5] = PathHunter β-arrestin assay, read-out: β-arrestin activity EC50
[6] = Table 3, read-out: EC50 GIP-R/nM
[7] = Table 3A, read-out: EC50 GIP-R/nM
[8] = Table 3, read-out: EC50 GLP-1R/nM
[9] = Table 3A, read-out: EC50 GLP-1R/nM

T1 sequence (P43220 24-463): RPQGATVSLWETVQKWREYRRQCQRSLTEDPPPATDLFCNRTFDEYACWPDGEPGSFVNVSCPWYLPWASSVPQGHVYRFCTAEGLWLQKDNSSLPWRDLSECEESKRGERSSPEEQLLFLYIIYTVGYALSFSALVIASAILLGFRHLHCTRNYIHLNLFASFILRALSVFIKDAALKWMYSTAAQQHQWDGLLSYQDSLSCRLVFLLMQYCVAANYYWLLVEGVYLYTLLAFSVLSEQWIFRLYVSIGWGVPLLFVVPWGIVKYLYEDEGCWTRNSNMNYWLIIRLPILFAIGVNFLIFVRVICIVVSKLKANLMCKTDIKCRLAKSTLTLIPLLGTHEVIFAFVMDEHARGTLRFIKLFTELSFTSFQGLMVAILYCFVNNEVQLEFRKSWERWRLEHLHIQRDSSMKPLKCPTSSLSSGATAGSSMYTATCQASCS

Row | SMILES | pEC50 [1] | EC50 ([2]; EC50 GIP-R/nM, Table 3) [nM] | Emax at 1 µM [2] [%] | EC50 [2, 4] [nM] | EC50 ([3]; EC50 GLP-1R/nM, Table 3) [nM] | EC50 ([3]; EC50 GLP-1R/nM, Table 3A) [nM] | Emax ([3]; Table 3) [%] | Emax ([3]; Table 3A) [%] | pEC50 [1, 5] | EC50 [2, 6] [nM] | EC50 [2, 7] [nM] | EC50 [3, 8] [nM] | EC50 [3, 9] [nM] | Emax ([2]; Table 3) [%] | Emax ([2]; Table 3A) [%] | EC50 ([2]; EC50 GIP-R/nM, Table 3A) [nM]
1 | CC[C@H](C)[C@H](NC(=O)[C@H](CO)NC(=O)[C@H](Cc1ccc(O)cc1)NC(=O)[C@H](CC(=O)O)NC(=O)[C@H](CO)NC(=O)[C@@H](NC(=O)[C@H](Cc1ccccc1)NC(=O)[C@@H](NC(=O)CNC(=O)[C@H](CCC(=O)O)NC(=O)CCCCCCN1C(=O)CSC1=O)[C@@H](C)O)[C@@H](C)O)C(=O)N[C@@H](Cc1ccc(O)cc1)C(=O)N[C@@H](CC(C)C)C(=O)N[C@@H](CC(=O)O)C(=O)N[C@@H](CCCCN)C(=O)N[C@@H](CCC(N)=O)C(=O)N[C@@H](C)C(=O)N[C@@H](C)C(=O)NC(C)(C)C(=O)N[C@@H](CCC(=O)O)C(=O)N[C@@H](Cc1ccccc1)C(=O)N[C@H](C(=O)N[C@@H](CC(N)=O)C(=O)N[C@@H](Cc1c[nH]c2ccccc12)C(=O)N[C@@H](CC(C)C)C(=O)N[C@@H](CC(C)C)C(=O)N[C@@H](C)C(=O)NCC(=O)NCC(=O)N1CCC[C@H]1C(=O)N[C@@H](CO)C(=O)N[C@@H](CO)C(=O)NCC(=O)N[C@@H](C)C(=O)N1CCC[C@H]1C(=O)N1CCC[C@H]1C(=O)N1CCC[C@H]1C(=O)N[C@@H](CO)C(=O)N[C@@H](CCCCN)C(N)=O)C(C)C [Compound 176] | < 6.00 | > 1000 | 1.8 | > 1000 | 10 to 100 | 10 to 100 | 92 | 92 | – | – | – | – | – | – | – | –
2 | CC[C@H](C)[C@H](NC(=O)[C@H](CO)NC(=O)[C@H](Cc1ccc(O)cc1)NC(=O)[C@H](CC(=O)O)NC(=O)[C@H](CO)NC(=O)[C@@H](NC(=O)[C@H](Cc1ccccc1)NC(=O)[C@@H](NC(=O)CNC(=O)[C@H](CCC(=O)O)NC(=O)CCCCNC(=O)CN1C(=O)CSC1=O)[C@@H](C)O)[C@@H](C)O)C(=O)N[C@@H](Cc1ccc(O)cc1)C(=O)N[C@@H](CC(C)C)C(=O)N[C@@H](CC(=O)O)C(=O)N[C@@H](CCCCN)C(=O)N[C@@H](CCC(N)=O)C(=O)N[C@@H](C)C(=O)N[C@@H](C)C(=O)NC(C)(C)C(=O)N[C@@H](CCC(=O)O)C(=O)N[C@@H](Cc1ccccc1)C(=O)N[C@H](C(=O)N[C@@H](CC(N)=O)C(=O)N[C@@H](Cc1c[nH]c2ccccc12)C(=O)N[C@@H](CC(C)C)C(=O)N[C@@H](CC(C)C)C(=O)N[C@@H](C)C(=O)NCC(=O)NCC(=O)N1CCC[C@H]1C(=O)N[C@@H](CO)C(=O)N[C@@H](CO)C(=O)NCC(=O)N[C@@H](C)C(=O)N1CCC[C@H]1C(=O)N1CCC[C@H]1C(=O)N1CCC[C@H]1C(=O)N[C@@H](CO)C(=O)N[C@@H](CCCCN)C(N)=O)C(C)C [Compound 177] | – | – | 9 | – | – | – | 96 | 96 | < 6.00 | > 1000 | > 1000 | 1 to 10 | 1 to 10 | – | – | –
3 | CC[C@H](C)[C@H](NC(=O)[C@H](CO)NC(=O)[C@H](Cc1ccc(O)cc1)NC(=O)[C@H](CC(=O)O)NC(=O)[C@H](CO)NC(=O)[C@@H](NC(=O)[C@H](Cc1ccccc1)NC(=O)[C@@H](NC(=O)CNC(=O)[C@H](CCC(=O)O)NC(=O)CCCNC(=O)CN1C(=O)CSC1=O)[C@@H](C)O)[C@@H](C)O)C(=O)N[C@@H](Cc1ccc(O)cc1)C(=O)N[C@@H](CC(C)C)C(=O)N[C@@H](CC(=O)O)C(=O)N[C@@H](CCCCN)C(=O)N[C@@H](CCC(N)=O)C(=O)N[C@@H](C)C(=O)N[C@@H](C)C(=O)NC(C)(C)C(=O)N[C@@H](CCC(=O)O)C(=O)N[C@@H](Cc1ccccc1)C(=O)N[C@H](C(=O)N[C@@H](CC(N)=O)C(=O)N[C@@H](Cc1c[nH]c2ccccc12)C(=O)N[C@@H](CC(C)C)C(=O)N[C@@H](CC(C)C)C(=O)N[C@@H](C)C(=O)NCC(=O)NCC(=O)N1CCC[C@H]1C(=O)N[C@@H](CO)C(=O)N[C@@H](CO)C(=O)NCC(=O)N[C@@H](C)C(=O)N1CCC[C@H]1C(=O)N1CCC[C@H]1C(=O)N1CCC[C@H]1C(=O)N[C@@H](CO)C(=O)N[C@@H](CCCCN)C(N)=O)C(C)C [Compound 178] | – | – | – | – | – | – | 97 | 97 | < 6.00 | 100 to 1000 | 100 to 1000 | 1 to 10 | 1 to 10 | 38 | 38 | –
4 | CC[C@H](C)[C@H](NC(=O)[C@H](CO)NC(=O)[C@H](Cc1ccc(O)cc1)NC(=O)[C@H](CC(=O)O)NC(=O)[C@H](CO)NC(=O)[C@@H](NC(=O)[C@H](Cc1ccccc1)NC(=O)[C@@H](NC(=O)CNC(=O)[C@H](CCC(=O)O)NC(=O)C12CC(C(=O)NCCN3C(=O)CSC3=O)(C1)C2)[C@@H](C)O)[C@@H](C)O)C(=O)N[C@@H](Cc1ccc(O)cc1)C(=O)N[C@@H](CC(C)C)C(=O)N[C@@H](CC(=O)O)C(=O)N[C@@H](CCCCN)C(=O)N[C@@H](CCC(N)=O)C(=O)N[C@@H](C)C(=O)N[C@@H](C)C(=O)NC(C)(C)C(=O)N[C@@H](CCC(=O)O)C(=O)N[C@@H](Cc1ccccc1)C(=O)N[C@H](C(=O)N[C@@H](CC(N)=O)C(=O)N[C@@H](Cc1c[nH]c2ccccc12)C(=O)N[C@@H](CC(C)C)C(=O)N[C@@H](CC(C)C)C(=O)N[C@@H](C)C(=O)NCC(=O)NCC(=O)N1CCC[C@H]1C(=O)N[C@@H](CO)C(=O)N[C@@H](CO)C(=O)NCC(=O)N[C@@H](C)C(=O)N1CCC[C@H]1C(=O)N1CCC[C@H]1C(=O)N1CCC[C@H]1C(=O)N[C@@H](CO)C(=O)N[C@@H](CCCCN)C(N)=O)C(C)C [Compound 179] | 6.00 to 8.00 | > 1000 | 2 | > 1000 | 0.1 to 1 | 0.1 to 1 | 103 | 103 | – | – | – | – | – | – | – | –
5 | CC[C@H](C)[C@H](NC(=O)[C@H](CO)NC(=O)[C@H](Cc1ccc(O)cc1)NC(=O)[C@H](CC(=O)O)NC(=O)[C@H](CO)NC(=O)[C@@H](NC(=O)[C@H](Cc1ccccc1)NC(=O)[C@@H](NC(=O)CNC(=O)[C@H](CCC(=O)O)NC(=O)CSCC(=O)NCCCN1C(=O)c2ccccc2C1=O)[C@@H](C)O)[C@@H](C)O)C(=O)N[C@@H](Cc1ccc(O)cc1)C(=O)N[C@@H](CC(C)C)C(=O)N[C@@H](CC(=O)O)C(=O)N[C@@H](CCCCN)C(=O)N[C@@H](CCC(N)=O)C(=O)N[C@@H](C)C(=O)N[C@@H](C)C(=O)NC(C)(C)C(=O)N[C@@H](CCC(=O)O)C(=O)N[C@@H](Cc1ccccc1)C(=O)N[C@H](C(=O)N[C@@H](CC(N)=O)C(=O)N[C@@H](Cc1c[nH]c2ccccc12)C(=O)N[C@@H](CC(C)C)C(=O)N[C@@H](CC(C)C)C(=O)N[C@@H](C)C(=O)NCC(=O)NCC(=O)N1CCC[C@H]1C(=O)N[C@@H](CO)C(=O)N[C@@H](CO)C(=O)NCC(=O)N[C@@H](C)C(=O)N1CCC[C@H]1C(=O)N1CCC[C@H]1C(=O)N1CCC[C@H]1C(=O)N[C@@H](CO)C(=O)N[C@@H](CCCCN)C(N)=O)C(C)C [Compound 180] | – | – | – | – | – | – | 94 | 94 | < 6.00 | 10 to 100 | 10 to 100 | 10 to 100 | 10 to 100 | 84 | 84 | –
6 | CC[C@H](C)[C@H](NC(=O)[C@H](CO)NC(=O)[C@H](Cc1ccc(O)cc1)NC(=O)[C@H](CC(=O)O)NC(=O)[C@H](CO)NC(=O)[C@@H](NC(=O)[C@H](Cc1ccccc1)NC(=O)[C@@H](NC(=O)CNC(=O)[C@H](CCC(=O)O)NC(=O)CCCCC(=O)NCCN1C(=O)c2ccccc2C1=O)[C@@H](C)O)[C@@H](C)O)C(=O)N[C@@H](Cc1ccc(O)cc1)C(=O)N[C@@H](CC(C)C)C(=O)N[C@@H](CC(=O)O)C(=O)N[C@@H](CCCCN)C(=O)N[C@@H](CCC(N)=O)C(=O)N[C@@H](C)C(=O)N[C@@H](C)C(=O)NC(C)(C)C(=O)N[C@@H](CCC(=O)O)C(=O)N[C@@H](Cc1ccccc1)C(=O)N[C@H](C(=O)N[C@@H](CC(N)=O)C(=O)N[C@@H](Cc1c[nH]c2ccccc12)C(=O)N[C@@H](CC(C)C)C(=O)N[C@@H](CC(C)C)C(=O)N[C@@H](C)C(=O)NCC(=O)NCC(=O)N1CCC[C@H]1C(=O)N[C@@H](CO)C(=O)N[C@@H](CO)C(=O)NCC(=O)N[C@@H](C)C(=O)N1CCC[C@H]1C(=O)N1CCC[C@H]1C(=O)N1CCC[C@H]1C(=O)N[C@@H](CO)C(=O)N[C@@H](CCCCN)C(N)=O)C(C)C [Compound 181] | < 6.00 | 1 to 10 | – | – | 10 to 100 | 10 to 100 | 103 | 103 | – | – | – | – | – | 102 | 102 | 1 to 10
